From the supplement of paper PMC10307832

How the values were obtained:
Assay in all cases: relative viability (nuclei count vs DMSO), 5 days (fraction); higher = more cells survive
NCI-H1563 = test system: NCI-H1563
In short: (§1)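 Each reported value is a median over duplicate plates. It expresses relative viability: treated-well nuclei count divided by vehicle-well nuclei count. Lung cancer cell lines in 1536-well plates were dosed by pin tool a day after seeding, alone with one drug or with a fixed anchor-drug dose plus five library-drug doses (not always all listed) in √10 steps, and nuclei were counted after 5 days.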

NCI-H650 = test system: NCI-H650
In short: as §1

HARA = test system: HARA
In short: as §1

201T = test system: 201T
In short: as §1

BEN = test system: BEN
In short: as §1

LU99A = test system: LU99A
In short: as §1

EMC-BAC-2 = test system: EMC-BAC-2
In short: as §1

NCI-H2087 = test system: NCI-H2087
In short: as §1

NCI-H2126 = test system: NCI-H2126
In short: as §1

LOU-NH91 = test system: LOU-NH91
In short: as §1

SK-MES-1 = test system: SK-MES-1
In short: as §1

NCI-H1993 = test system: NCI-H1993
In short: as §1

HCC-78 = test system: HCC-78
In short: as §1

RERF-LC-KJ = test system: RERF-LC-KJ
In short: as §1

H3255 = test system: H3255
In short: as §1

LC-2-ad = test system: LC-2-ad
In short: as §1

LXF-289 = test system: LXF-289
In short: as §1

NCI-H2170 = test system: NCI-H2170
In short: as §1

HOP-62 = test system: HOP-62
In short: as §1

UMC-11 = test system: UMC-11
In short: as §1

COR-L 105 = test system: COR-L 105
In short: as §1

`CN1CCN(CCOc2cc(OC3CCOCC3)c3c(Nc4c(Cl)ccc5c4OCO5)ncnc3c2)CC1` [Saracatinib] + C[C@@H](Oc1cc(-c2cnn(C3CCNCC3)c2)cnc1N)c1c(Cl)ccc(F)c1Cl [Crizotinib] (partner 1 µM) was tested, and the relative viability (NCI-H1563; first compound 0.02 µM) was 0.905, the relative viability (NCI-H1563; first compound 0.2 µM) was 0.778 and the relative viability (NCI-H1563; first compound 0.6325 µM) was 0.677. It also gave a relative viability (NCI-H1563; first compound 2 µM) of 0.635, a relative viability (NCI-H650; first compound 0.02 µM) of 0.597 and a relative viability (NCI-H650; first compound 0.2 µM) of 0.643. It also gave a relative viability (NCI-H650; first compound 0.6325 µM) of 0.639, a relative viability (NCI-H650; first compound 2 µM) of 0.622 and a relative viability (HARA; first compound 0.02 µM) of 1.02. The relative viability (HARA; first compound 0.6325 µM) was 0.829, the relative viability (HARA; first compound 2 µM) was 0.64 and the relative viability (201T; first compound 0.02 µM) was 1.05. For the same molecule, the relative viability (201T; first compound 0.2 µM) was 0.946, the relative viability (201T; first compound 0.6325 µM) was 0.962 and the relative viability (201T; first compound 2 µM) was 0.862. For the same molecule, the relative viability (BEN; first compound 0.02 µM) was 0.77, the relative viability (BEN; first compound 0.2 µM) was 0.738 and the relative viability (BEN; first compound 0.6325 µM) was 0.911. It also gave a relative viability (BEN; first compound 2 µM) of 0.569, a relative viability (LU99A; first compound 0.02 µM) of 0.664 and a relative viability (LU99A; first compound 0.2 µM) of 0.377. It also gave a relative viability (LU99A; first compound 0.6325 µM) of 0.487, a relative viability (LU99A; first compound 2 µM) of 0.39 and a relative viability (EMC-BAC-2; first compound 0.02 µM) of 0.701. The relative viability (EMC-BAC-2; first compound 0.2 µM) was 0.72, the relative viability (EMC-BAC-2; first compound 0.6325 µM) was 0.652 and the relative viability (EMC-BAC-2; first compound 2 µM) was 0.463. The relative viability (NCI-H2087; first compound 0.02 µM) was 0.993, the relative viability (NCI-H2087; first compound 0.2 µM) was 0.697 and the relative viability (NCI-H2087; first compound 0.6325 µM) was 1.07. It also gave a relative viability (NCI-H2087; first compound 2 µM) of 1.02, a relative viability (NCI-H2126; first compound 0.02 µM) of 0.991 and a relative viability (NCI-H2126; first compound 0.2 µM) of 0.84. For the same molecule, the relative viability (NCI-H2126; first compound 0.6325 µM) was 1.02, the relative viability (NCI-H2126; first compound 2 µM) was 0.894 and the relative viability (LOU-NH91; first compound 0.02 µM) was 0.692. The relative viability (LOU-NH91; first compound 0.2 µM) was 0.57, the relative viability (LOU-NH91; first compound 0.6325 µM) was 0.542 and the relative viability (LOU-NH91; first compound 2 µM) was 0.458. The relative viability (SK-MES-1; first compound 0.02 µM) was 1.05, the relative viability (SK-MES-1; first compound 0.2 µM) was 0.858 and the relative viability (SK-MES-1; first compound 0.6325 µM) was 0.825. It also gave a relative viability (SK-MES-1; first compound 2 µM) of 0.517, a relative viability (NCI-H1993; first compound 0.02 µM) of 0.832 and a relative viability (NCI-H1993; first compound 0.2 µM) of 0.594. The relative viability (NCI-H1993; first compound 2 µM) was 0.589, the relative viability (HCC-78; first compound 0.02 µM) was 0.355 and the relative viability (HCC-78; first compound 0.2 µM) was 0.315. The relative viability (HCC-78; first compound 0.6325 µM) was 0.317, the relative viability (HCC-78; first compound 2 µM) was 0.207 and the relative viability (RERF-LC-KJ; first compound 0.02 µM) was 0.81. The relative viability (RERF-LC-KJ; first compound 0.2 µM) was 0.833, the relative viability (RERF-LC-KJ; first compound 0.6325 µM) was 0.945 and the relative viability (RERF-LC-KJ; first compound 2 µM) was 0.778. It also gave a relative viability (H3255; first compound 0.02 µM) of 0.865, a relative viability (H3255; first compound 0.2 µM) of 0.952 and a relative viability (H3255; first compound 0.6325 µM) of 0.664. It also gave a relative viability (H3255; first compound 2 µM) of 0.269, a relative viability (LC-2-ad; first compound 0.02 µM) of 0.434 and a relative viability (LC-2-ad; first compound 0.2 µM) of 0.41. For the same molecule, the relative viability (LC-2-ad; first compound 0.6325 µM) was 0.513, the relative viability (LC-2-ad; first compound 2 µM) was 0.371 and the relative viability (LXF-289; first compound 0.02 µM) was 0.845. The relative viability (LXF-289; first compound 0.2 µM) was 0.775, the relative viability (LXF-289; first compound 0.6325 µM) was 0.847 and the relative viability (LXF-289; first compound 2 µM) was 0.892. The relative viability (NCI-H2170; first compound 0.02 µM) was 1.13, the relative viability (NCI-H2170; first compound 0.2 µM) was 1.24 and the relative viability (NCI-H2170; first compound 0.6325 µM) was 1.13. It also gave a relative viability (NCI-H2170; first compound 2 µM) of 0.649, a relative viability (HOP-62; first compound 0.02 µM) of 0.772 and a relative viability (HOP-62; first compound 0.2 µM) of 0.928. It also gave a relative viability (HOP-62; first compound 0.6325 µM) of 0.841, a relative viability (HOP-62; first compound 2 µM) of 1.02 and a relative viability (UMC-11; first compound 0.02 µM) of 0.571. The relative viability (UMC-11; first compound 0.6325 µM) was 0.677, the relative viability (UMC-11; first compound 2 µM) was 0.386 and the relative viability (COR-L 105; first compound 0.02 µM) was 0.881. The relative viability (COR-L 105; first compound 0.2 µM) was 0.763, the relative viability (COR-L 105; first compound 0.6325 µM) was 0.459 and the relative viability (COR-L 105; first compound 2 µM) was 0.252.
